Read-outs that look alike come from different tables or passages of the source.
Tests used:
Assay type in all cases: cell-based
MYB mRNA [1] = assay: Splicing RT-qPCR assay (THP), Table 2A
HTT mRNA [2] = assay: Splicing RT-qPCR assay (THP), Table 2A
HTT mRNA [3] = assay: Gene panel canonical junction qPCR assay, decrease in CJ mRNA, Table 3
Summary of the method: (§1)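 Cells: A673 or K562; 24 h compound exposure, 37 °C, 5% CO2; 11-pt 3-fold series from 10 uM final; DMSO ≤0.25%. Lysate → cDNA → qPCR with junction-spanning primers/probe for CJ transcript. ΔCt vs housekeeper, ΔΔCt vs DMSO, 2^(−ΔΔCt), % response, 4PL → IC50.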

MYB mRNA [4] = assay: as above
Summary of the method: as §1

[5] = test system: SH-SY5Y (human neuroblastoma) cells; assay: Cell viability, Cell Titer Glo 2.0 assay; settings: read-out: Viability SHSY5Y.3 GI50
Summary of the method: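 CellTiter-Glo 2.0 luminescence read-out after 72 h compound exposure (37 °C, 5% CO2); medium-only wells as blank. DMSO 0.1% final.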

[6] = Table 2A (THP), AJ mRNA increase, read-out: MYB AJ (increase in alternative junction mRNA, AC50)
[7] = Table 2A (THP), CJ mRNA decrease, read-out: MYB CJ (decrease in canonical junction mRNA, IC50)
[8] = Table 2A (THP), AJ mRNA increase, read-out: HTT AJ (increase in alternative junction mRNA, AC50)
[9] = Table 2A (THP), CJ mRNA decrease, read-out: HTT CJ (decrease in canonical junction mRNA, IC50)
[10] = decrease in canonical junction (CJ) mRNA, gene panel qPCR, Table 3
[11] = Table 2A, THP, MYB alternative junction (AJ) mRNA, read-out: MYB AJ (AC50, increase in alternative junction mRNA)
[12] = Table 2A, THP, MYB canonical junction (CJ) mRNA, read-out: MYB CJ (IC50, decrease in canonical junction mRNA)
[13] = Table 2A, THP, HTT alternative junction (AJ) mRNA, read-out: HTT AJ (AC50, increase in alternative junction mRNA)
[14] = Table 2A, THP, HTT canonical junction (CJ) mRNA, read-out: HTT CJ (IC50, decrease in canonical junction mRNA)
[15] = decrease in CJ mRNA levels, canonical junction qPCR, gene panel

| SMILES | IC50 (MYB mRNA [1]; [7]) [nM] | IC50 (HTT mRNA [2]; [9]) [nM] | IC50 (HTT mRNA [3]; [10]) [nM] | IC50 (MYB mRNA [4]; [10]) [nM] | GI50 [5] [nM] | IC50 (MYB mRNA [1]; [12]) [nM] | IC50 (HTT mRNA [2]; [14]) [nM] | IC50 (HTT mRNA [3]; [15]) [nM] | IC50 (MYB mRNA [4]; [15]) [nM] | AC50 (MYB mRNA [1]; [6]) [nM] | AC50 (HTT mRNA [2]; [8]) [nM] | AC50 (MYB mRNA [1]; [11]) [nM] | AC50 (HTT mRNA [2]; [13]) [nM] |
| --- | --- | --- | --- | --- | --- | --- | --- | --- | --- | --- | --- | --- | --- |
| COc1nc2c(C(=O)Nc3cc4cn(C)nc4c(F)c3O)ccc(N3C[C@H](C)N[C@@H](C)C3)c2s1 [Compound 761, 7-[(3S,5S)-3,5-dimethylpiperazin-1-yl]-N-(7-fluoro-6-hydroxy-2-methyl-indazol-5-yl)-2-methoxy-1,3-benzothiazole-4-carboxamide] |  |  |  |  | 1000 to 10000 | 100 to 1000 | > 10000 | > 10000 | 100 to 1000 |  |  | 100 to 1000 | > 10000 |
| COc1nc2c(C(=O)Nc3cc4cn(C)nc4c(F)c3OC)ccc(N3C[C@H](C)N[C@@H](C)C3)c2s1 [Compound 786] |  |  |  |  | 1000 to 10000 | 100 to 1000 | 1000 to 10000 | 1000 to 10000 | 100 to 1000 |  |  | 100 to 1000 | 1000 to 10000 |
| COc1nc2c(C(=O)Nc3cc(F)c4nn(C)cc4c3)ccc(N3C[C@@H](C)N[C@H](C)C3)c2s1 [Compound 719, 7-[(3R,5R)-3,5-dimethylpiperazin-1-yl]-N-(7-fluoro-2-methyl-indazol-5-yl)-2-methoxy-1,3-benzothiazole-4-carboxamide] |  |  |  |  | 100 to 1000 | < 100 | 1000 to 10000 | 1000 to 10000 | < 100 |  |  | < 100 | 1000 to 10000 |
| COc1cnncc1NC(=O)c1c(F)cc(N2CCC(NC3CC3)CC2)c2cn(C)nc12 [Compound 421, 4-[4-(cyclopropylamino)-1-piperidyl]-6-fluoro-N-(5-methoxypyridazin-4-yl)-2-methyl-indazole-7-carbox-amide] | > 10000 | > 10000 | > 10000 | > 10000 | 1000 to 10000 |  |  |  |  | > 10000 | > 10000 |  |  |
| COc1nc2c(C(=O)Nc3cc(F)c4nn(C)cc4c3)ccc(N3C[C@@H](C)N[C@@H](C)C3)c2s1 [Compound 720] |  |  |  |  | < 100 | < 100 | 100 to 1000 | 100 to 1000 | < 100 |  |  | < 100 | 100 to 1000 |
| COc1nc2c(C(=O)Nc3cccc4c3nnn4C)ccc(N3C[C@H](C)N[C@@H](C)C3)c2s1 [Compound 740, 7-[(3S,5S)-3,5-dimethylpiperazin-1-yl]-2-methoxy-N-(1-methylbenzotriazol-4-yl)-1,3-benzothiazole-4-carboxamide] |  |  |  |  | 1000 to 10000 | > 10000 | 1000 to 10000 | 1000 to 10000 | > 10000 |  |  | > 10000 | > 10000 |
| COc1nc2c(C(=O)Nc3cc(F)c4nn(C)cc4c3)ccc(N3CCN4CCCC[C@H]4C3)c2s1 [Compound 746] |  |  |  |  | 100 to 1000 | 100 to 1000 | 100 to 1000 | 100 to 1000 | 100 to 1000 |  |  | < 100 | 100 to 1000 |
| COc1nc2c(C(=O)Nc3cc(C)c4nn(C)cc4c3OC)ccc(N3C[C@H](C)N[C@@H](C)C3)c2s1 [Compound 717, 7-[(3S,5S)-3,5-dimethylpiperazin-1-yl]-2-methoxy-N-(4-methoxy-2,7-dimethyl-indazol-5-yl)-1,3-benzothiazole-4-carboxamide] |  |  |  |  | 1000 to 10000 | > 10000 | 1000 to 10000 | 1000 to 10000 | > 10000 |  |  | > 10000 | > 10000 |

Further lines, with some results ahead:

| IC50 (MYB mRNA [1]; [7]) [nM] | IC50 (HTT mRNA [2]; [9]) [nM] | IC50 (HTT mRNA [3]; [10]) [nM] | IC50 (MYB mRNA [4]; [10]) [nM] | GI50 [5] [nM] | IC50 (MYB mRNA [1]; [12]) [nM] | IC50 (HTT mRNA [2]; [14]) [nM] | IC50 (HTT mRNA [3]; [15]) [nM] | IC50 (MYB mRNA [4]; [15]) [nM] | SMILES | AC50 (MYB mRNA [1]; [6]) [nM] | AC50 (HTT mRNA [2]; [8]) [nM] | AC50 (MYB mRNA [1]; [11]) [nM] | AC50 (HTT mRNA [2]; [13]) [nM] |
| --- | --- | --- | --- | --- | --- | --- | --- | --- | --- | --- | --- | --- | --- |
| > 10000 | > 10000 | > 10000 | > 10000 | > 10000 |  |  |  |  | Cc1cn2cc(NC(=O)c3c(F)cc(N4CCC(NC5CC5)CC4)c4cn(C)nc34)nc(-n3ccccc3=O)c2n1 [Compound 427, 4-[4-(cyclopropylamino)-1-piperidyl]-6-fluoro-2-methyl-N-[2-methyl-8-(2-oxo-1-pyridyl)-imidazo[1,2-a]-pyrazin-6-yl]-indazole-7-carboxamide] | 1000 to 10000 | > 10000 |  |  |
| 1000 to 10000 | > 10000 | > 10000 | 1000 to 10000 | 100 to 1000 |  |  |  |  | Cc1cc2cc(NC(=O)c3ccc(N4CCC(NC5CC5)CC4)c4cn(C)nc34)oc2c(C)n1 [Compound 451, 4-(4-(cyclopropylamino)piperidin-1-yl)-N-(5,7-dimethyl-furo-[2,3-c]pyridin-2-yl)-2-methyl-2H-indazole-7-carboxamide 2,2,2-trifluoroacetate] | 1000 to 10000 | > 10000 |  |  |
|  |  |  |  | 1000 to 10000 | > 10000 | > 10000 | > 10000 | > 10000 | COc1nc2c(C(=O)Nc3cn4cc(C)nc(C)c4n3)ccc(N3CCC(NC4CC4)CC3)c2s1 [Compound 667, 7-(4-(cyclopropylamino)-piperidin-1-yl)-N-(6,8-dimethylimidazo[1,2-a]pyrazin-2-yl)-2-methoxy-benzo[d]thiazole-4-carboxamide 2,2,2-trifluoroacetate] |  |  | 1000 to 10000 | > 10000 |
| 100 to 1000 | 1000 to 10000 | 1000 to 10000 | 100 to 1000 | 100 to 1000 |  |  |  |  | COc1c(NC(=O)c2c(F)cc(N3CCC(NC4CC4)CC3)c3cn(C)nc23)cc2cn(C)nc2c1C [Compound 425, 4-[4-(cyclopropylamino)-1-piperidy1]-6-fluoro-N-(6-methoxy-2,7-dimethyl-indazol-5-y1)-2-methyl-indazole-7-carboxamide] | 100 to 1000 | 1000 to 10000 |  |  |
| 1000 to 10000 | 1000 to 10000 | 1000 to 10000 | 1000 to 10000 | 1000 to 10000 |  |  |  |  | CCNC1CCN(c2ccc(C(=O)Nc3cn4cc(C)nc(CC)c4n3)c3nn(C)cc23)CC1 [Compound 358, 4-[4-(ethylamino)-1-piperidy1]-N-(8-ethyl-6-methyl-imidazo[1,2-a]-pyrazin-2-yl)-2-methyl-indazole-7-carboxamide] | 100 to 1000 | 1000 to 10000 |  |  |
| < 100 | 100 to 1000 | 100 to 1000 | < 100 | 100 to 1000 |  |  |  |  | Cc1cn2cc(NC(=O)c3ccc(N4CCC(NC5(C)CC5)CC4)c4cn(C)nc34)cc(F)c2n1 [Compound 355, N-(8-fluoro-2-methyl-imidazo[1,2-a]-pyridin-6-yl)-2-methyl-4-[4-[(1-methyl-cyclopropyl)amino]-1-piperidyl]indazole-7-carboxamide] | < 100 | 100 to 1000 |  |  |
| 100 to 1000 | 100 to 1000 | 100 to 1000 | 100 to 1000 | 100 to 1000 |  |  |  |  | Cc1nc(C)c2nc(NC(=O)c3ccc(N4CCC(NC5CC5)CC4)c4cn(C)nc34)cn2c1C [Compound 495, 4-[4-(cyclopropyl-amino)-1-piperidyl]-2-meth-yl-N-(5,6,8-trimethylimi-dazo-[1,2-a]pyrazin-2-yl)-indazole-7-carboxamide] | 100 to 1000 | 100 to 1000 |  |  |
|  |  |  |  | 1000 to 10000 | > 10000 | > 10000 | > 10000 | > 10000 | Cc1cn2cc(NC(=O)c3ccc(N4CCC(NC5CC5)CC4)c4cn(C)nc34)nc2c(Cn2ccc(=O)[nH]c2=O)n1 [Compound 733, 4-(4-(cyclopropylamino)piperidin-1-yl)-N-(8-((2,4-dioxo-3,4-dihydropyrimidin-1(2H)-yl)methyl)-6-methylimidazo[1,2-a]pyrazin-2-yl)-2-methyl-2H-indazole-7-carboxamide 2,2,2-trifluoroacetate] |  |  | > 10000 | > 10000 |
|  |  |  |  | > 10000 | > 10000 | > 10000 | > 10000 | > 10000 | CCNC1C(C)CN(c2ccc(C(=O)Nc3cn4cc(C)nc(C)c4n3)c3nn(C)cc23)CC1C (centres unmarked) [Compound 686] |  |  | > 10000 | > 10000 |
| 100 to 1000 | 100 to 1000 | 100 to 1000 | 100 to 1000 | 1000 to 10000 |  |  |  |  | COc1cc2nn(C)cc2cc1NC(=O)c1ccc(N2CCNC(C)C2)c2cn(C)nc12 (centres unmarked) [Compound 568] | 100 to 1000 | 1000 to 10000 |  |  |
| > 10000 | > 10000 | > 10000 | > 10000 | 1000 to 10000 |  |  |  |  | CCNC1CCN(c2ccc(C(=O)Nc3cc(Oc4ccccc4C#N)c4nc(C)cn4c3)c3nn(C)cc23)CC1 [Compound 315, N-[8-(2-cyano-phenoxy)-2-methyl-imidazo[1,2-a]pyridin-6-yl]-4-[4-(ethylamino)-1-piperidyl]-2-methyl-indazole-7-carboxamide] | 1000 to 10000 | > 10000 |  |  |
| 1000 to 10000 | 1000 to 10000 | 1000 to 10000 | 1000 to 10000 | 1000 to 10000 |  |  |  |  | Cc1cn2cc(NC(=O)c3ccc(N4CC(C5CCNCC5)C4)c4cn(C)nc34)nc2c(C)n1 [Compound 499] | 1000 to 10000 | 1000 to 10000 |  |  |

Reference: patent US20260285853A1, “COMPOUNDS AND METHODS FOR MODULATING SPLICING” (REMIX THERAPEUTICS INC., priority 2023, published 2026)
